# Test results as given in patent US20260152487A1 (Sitryx Therapeutics Limited, priority 2021, published 2026).
# Molecular target: T1, recombinant human PKM2 (Homo sapiens, UniProt P14618)
# T1 construct: His (N); purchased R&D Systems
# Assay: Human PKM2 activation assay (Kinase-Glo Plus luminescent detection of generated ATP)
# Format: biochemical
# Details: for Emax: percentage activation normalised to DMSO vehicle (LOW) and 5 μM TEPP-46 (HIGH), read-out: hPKM2 Emax; for EC50: recombinant human PKM2 activation, 4-parameter logistic fit, read-out: hPKM2 EC50
# Procedure, shortened: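 Luminescent ATP detection (Kinase-Glo Plus, 15 min, 26 °C) followed a 60 min, 26 °C shaken reaction of compound with […] His-tagged human PKM2, PEP and ADP in imidazole/KCl/MgCl2 buffer with Tween20 and BSA, pH 7.2.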
# T1 sequence (P14618 2-531 limits assumed): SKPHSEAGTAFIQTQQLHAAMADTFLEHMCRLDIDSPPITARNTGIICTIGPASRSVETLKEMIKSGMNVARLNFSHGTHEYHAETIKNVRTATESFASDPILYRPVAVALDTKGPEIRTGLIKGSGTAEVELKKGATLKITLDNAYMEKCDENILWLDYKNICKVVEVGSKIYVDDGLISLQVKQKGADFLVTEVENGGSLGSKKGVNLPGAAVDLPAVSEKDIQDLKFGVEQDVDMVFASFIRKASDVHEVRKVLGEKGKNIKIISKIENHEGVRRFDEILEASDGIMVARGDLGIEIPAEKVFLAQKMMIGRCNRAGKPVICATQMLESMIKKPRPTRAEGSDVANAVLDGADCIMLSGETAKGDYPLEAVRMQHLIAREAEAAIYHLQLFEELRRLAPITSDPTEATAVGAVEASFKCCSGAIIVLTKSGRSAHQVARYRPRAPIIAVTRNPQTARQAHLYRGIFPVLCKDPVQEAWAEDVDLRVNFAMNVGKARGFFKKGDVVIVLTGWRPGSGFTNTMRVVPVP
Emax [%],EC50 [nM],SMILES
93,350,"CC(O)c1cccc(Cn2ncc3cc(S(=O)(=O)c4cnn(C)c4)ccc3c2=O)n1 (centres unmarked) [Example 274, 2-((6-(1-hydroxyethyl)pyridin-2-yl)methyl)-6-((1-methyl-1H-pyrazol-4-yl)sulfonyl)phthalazin-1(2H)-one]"
102,518,"Cc1cccc(Cn2ncc3cc(S(=O)(=O)c4cnn(C5CNC5)c4)ccc3c2=O)n1 [Example 276, 6-((1-(azetidin-3-yl)-1H-pyrazol-4-yl)sulfonyl)-2-((6-methylpyridin-2-yl)methyl)phthalazin-1(2H)-one]"
105,304,"Cc1cccc(Cn2ncc3cc(S(=O)(=O)c4cnn(CCN)c4)ccc3c2=O)n1 [Example 277, 6-((1-(2-aminoethyl)-1H-pyrazol-4-yl)sulfonyl)-2-((6-methylpyridin-2-yl)methyl)phthalazin-1(2H)-one]"
89.2,120,"COc1ccc(Cn2ncc3cc(S(=O)(=O)c4ccn(CCO)n4)ccc3c2=O)cn1 [Example 280, 6-((1-(2-hydroxyethyl)-1H-pyrazol-3-yl)sulfonyl)-2-((6-methoxypyridin-3-yl)methyl)phthalazin-1(2H)-one]"
113,382,"COCCn1cc(S(=O)(=O)c2ccc3c(=O)n(Cc4cc[nH]n4)ncc3c2)cn1 [Example 281, 2-((1H-pyrazol-3-yl)methyl)-6-((1-(2-methoxyethyl)-1H-pyrazol-4-yl)sulfonyl)phthalazin-1(2H)-one]"
109,155,"Cc1cccc(Cn2ncc3cc(S(=O)(=O)c4csc(C(C)O)n4)ccc3c2=O)n1 (centres unmarked) [Example 282, 6-((2-(1-hydroxyethyl)thiazol-4-yl)sulfonyl)-2-((6-methylpyridin-2-yl)methyl)phthalazin-1(2H)-one]"
78.6,441,"Cn1cc(S(=O)(=O)c2ccc3c(=O)n(Cc4cccc(C5(O)COC5)n4)ncc3c2)cn1 [Example 283, 2-((6-(3-hydroxyoxetan-3-yl)pyridin-2-yl)methyl)-6-((1-methyl-1H-pyrazol-4-yl)sulfonyl)phthalazin-1(2H)-one]"
72.7,452,"COc1ncccc1Cn1ncc2cc(S(=O)(=O)c3cn[nH]c3)ccc2c1=O [Example 284, 6-((1H-pyrazol-4-yl)sulfonyl)-2-((2-methoxypyridin-3-yl)methyl)phthalazin-1(2H)-one]"
98.4,217,"COc1ccc(S(=O)(=O)c2ccc3c(=O)n(Cc4ccn(CCO)n4)ncc3c2)cn1 [Example 285, 2-((1-(2-hydroxyethyl)-1H-pyrazol-3-yl)methyl)-6-((6-methoxypyridin-3-yl)sulfonyl)phthalazin-1(2H)-one]"
105,246,"COc1cccc(S(=O)(=O)c2ccc3c(=O)n(Cc4cc[nH]n4)ncc3c2)n1 [Example 286, 2-((1H-pyrazol-3-yl)methyl)-6-((6-methoxypyridin-2-yl)sulfonyl)phthalazin-1(2H)-one]"
93.9,187,"Cc1cccc(S(=O)(=O)c2ccc3c(=O)n(Cc4cc[nH]n4)ncc3c2)n1 [Example 288, 2-((1H-pyrazol-3-yl)methyl)-6-((6-methylpyridin-2-yl)sulfonyl)phthalazin-1(2H)-one]"
91.8,319,"Cc1ccc(S(=O)(=O)c2ccc3c(=O)n(Cc4cc[nH]n4)ncc3c2)nc1 [Example 289, 2-((1H-pyrazol-3-yl)methyl)-6-((5-methylpyridin-2-yl)sulfonyl)phthalazin-1(2H)-one]"
106,594,"Cc1ccc(S(=O)(=O)c2ccc3c(=O)n(Cc4cc[nH]n4)ncc3c2)cn1 [Example 290, 2-((1H-pyrazol-3-yl)methyl)-6-((6-methylpyridin-3-yl)sulfonyl)phthalazin-1(2H)-one]"
82.8,988,"COc1ccc(Cn2ncc3cc(S(=O)(=O)c4cn[nH]c4)ccc3c2=O)nc1C [Example 291, 6-(1H-pyrazol-4-ylsulfonyl)-2-((5-methoxy-6-methylpyridin-2-yl)methyl)phthalazin-1(2H)-one]"
86.6,285,"COc1ccc(S(=O)(=O)c2ccc3c(=O)n(Cc4ccn(CCO)n4)ncc3c2)nc1 [Example 292, 2-((1-(2-hydroxyethyl)-1H-pyrazol-3-yl)methyl)-6-((5-methoxypyridin-2-yl)sulfonyl)phthalazin-1(2H)-one]"
67.5,858,"O=c1c2ccc(S(=O)(=O)c3cn[nH]c3)cc2cnn1Cc1cnc2c(c1)CCO2 [Example 293, 6-(1H-pyrazol-4-ylsulfonyl)-2-((2,3-dihydrofuro[2,3-b]pyridin-5-yl)methyl)phthalazin-1(2H)-one]"
104,150,"COc1cccc(Cn2ncc3cc(S(=O)(=O)c4cn[nH]c4)ccc3c2=O)n1 [Example 294, 6-((1H-pyrazol-4-yl)sulfonyl)-2-((6-methoxypyridin-2-yl)methyl)phthalazin-1(2H)-one]"
104,456,"Cc1ccc(Cn2ncc3cc(S(=O)(=O)c4cn[nH]c4)ccc3c2=O)cn1 [Example 295, 6-((1H-pyrazol-4-yl)sulfonyl)-2-((6-methylpyridin-3-yl)methyl)phthalazin-1(2H)-one]"
104,31.2,"O=c1c2ccc(S(=O)(=O)c3cc[nH]n3)cc2cnn1Cc1ccc2c(n1)CCO2 [Example 299, 6-((1H-pyrazol-3-yl)sulfonyl)-2-((2,3-dihydrofuro[3,2-b]pyridin-5-yl)methyl)phthalazin-1(2H)-one]"
93.2,99,"Cc1cc(Cn2ncc3cc(S(=O)(=O)c4cn[nH]c4)ncc3c2=O)n[nH]1 [Example 300, 7-((1H-pyrazol-4-yl)sulfonyl)-3-((5-methyl-1H-pyrazol-3-yl)methyl)pyrido[3,4-d]pyridazin-4(3H)-one]"
119,131,Cc1ccc(F)c(Cn2ncc3cc(S(=O)(=O)c4cc[nH]n4)ccc3c2=O)n1 [Example 301]
104,119,O=c1c2ccc(S(=O)(=O)c3cc[nH]n3)cc2cnn1Cc1cccc(C2CC2)n1 [Example 302]
118,88.3,Cc1nc(Cn2ncc3cc(S(=O)(=O)c4cc[nH]n4)ccc3c2=O)ccc1F [Example 303]
99.9,–,O=c1c2ccc(S(=O)(=O)c3cnn(C(F)F)c3)cc2cnn1Cc1cc[nH]n1 [Example 305]

Emax [%],EC50 [nM],SMILES
104,241,Cn1ccc(S(=O)(=O)c2ccc3c(=O)n(Cc4cc[nH]n4)ncc3c2)n1 [Example 306]
94.6,72.8,O=c1c2ccc(S(=O)(=O)c3cnn(CCO)c3)cc2cnn1Cc1cccc(C2CC2)n1 [Example 307]
95.5,145,Cn1cc(Cl)c(Cn2ncc3cc(S(=O)(=O)c4cn[nH]c4)ccc3c2=O)n1 [Example 308]
107,153,Cc1cc(Cn2ncc3cc(S(=O)(=O)c4cn[nH]c4)ccc3c2=O)nn1C [Example 310]
105,238,COc1ccc(Cn2ncc3cc(S(=O)(=O)c4cnn(CCO)c4)ccc3c2=O)nc1 [Example 311]
102,215,Cc1cc(Cn2ncc3cc(S(=O)(=O)c4cnn(C)c4)ccc3c2=O)n[nH]1 [Example 312]
92.3,196,Cc1c[nH]nc1Cn1ncc2cc(S(=O)(=O)c3cnn(C)c3)ccc2c1=O [Example 313]
108,241,Cc1cc(Cn2ncc3cc(S(=O)(=O)c4cnn(C(F)F)c4)ccc3c2=O)n[nH]1 [Example 315]
110,200,Cc1cccc(Cn2ncc3cc(S(=O)(=O)c4n[nH]cc4F)ccc3c2=O)n1 [Example 316]
109,169,Cn1cc(S(=O)(=O)c2ccc3c(=O)n(Cc4cc(Cl)[nH]n4)ncc3c2)cn1 [Example 317]
95.2,185,Cc1cccc(Cn2ncc3cc(S(=O)(=O)c4c[nH]nc4Cl)ccc3c2=O)n1 [Example 318]
102,157,Cc1cccc(Cn2ncc3cc(S(=O)(=O)c4n[nH]cc4Cl)ccc3c2=O)n1 [Example 319]
104,231,Cn1cc(S(=O)(=O)c2ccc3c(=O)n(Cc4cc(F)[nH]n4)ncc3c2)cn1 [Example 322]
111,151,COc1ccc(Cn2ncc3cc(S(=O)(=O)c4cc[nH]n4)ccc3c2=O)nc1 [Example 325]
106,174,COc1ccc(F)c(Cn2ncc3cc(S(=O)(=O)c4cn[nH]c4)ccc3c2=O)n1 [Example 326]
91.5,162,O=c1c2ccc(S(=O)(=O)c3cc[nH]n3)cc2cnn1Cc1ccn(C(F)F)n1 [Example 328]
98.5,232,COc1ccc(F)c(Cn2ncc3cc(S(=O)(=O)c4cc[nH]n4)ccc3c2=O)n1 [Example 329]
108,20.6,Cn1cc(S(=O)(=O)c2ccc3c(=O)n(Cc4ccc5occc5n4)ncc3c2)cn1 [Example 330]
93.3,167,Cc1cc(Cn2ncc3cc(S(=O)(=O)c4cnn(C)c4)ncc3c2=O)n[nH]1 [Example 331]
–,42.9,Cc1[nH]nc(Cn2ncc3cc(S(=O)(=O)c4cc[nH]n4)ccc3c2=O)c1Cl [Example 332]
101,31.8,COCCn1cc(S(=O)(=O)c2ccc3c(=O)n(Cc4ccc5c(n4)CCO5)ncc3c2)cn1 [Example 333]
96.8,23.3,O=c1c2ccc(S(=O)(=O)c3cnn(C4COC4)c3)cc2cnn1Cc1ccc2c(n1)CCO2 [Example 334]
113,14.2,O=c1c2ccc(S(=O)(=O)c3cc[nH]n3)cc2cnn1Cc1ccc2occc2n1 [Example 335]
